Experimental data taken from patent publication US20260265262A1, “CDK2 INHIBITORS AND METHODS OF USING THE SAME” (Cedilla Therapeutics, Inc., priority 2022, published 2026).

Assays:
Kuramochi cells = experiment: IncuCyte cell proliferation assay; format: cell-based; conditions: Kuramochi cells labeled with mApple-H2B, cell count 0 to 72 hours, 20 μM top concentration; read-out: IncuCyte Kuramochi RB-WT: IC50
How it was run: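 Kuramochi cells expressing mApple-H2B were treated with a 10-point, ½-log dilution series (top 20 μM). Fluorescent nuclei were counted by IncuCyte imaging at 0 and 72 h. The fold change in cell count was normalized to DMSO wells and fitted to dose-response curves to give […].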

CDK2/Cyclin E1 [1] = target: T1, CDK2/Cyclin E1 (Homo sapiens, UniProt P24941); experiment: CDK2/Cyclin E1 Caliper LabChip EZ Reader mobility shift assay; format: biochemical; conditions: 2.5 nM CDK2/Cyclin E1, 100 μM ATP, 1.5 μM fluorescent peptide, 30 min pre-incubation; read-out: Caliper Assay (CDK2/CCNE1): IC50
Procedure: Inhibition of CDK2/Cyclin E1 activity in the presence of compounds of the present disclosure was evaluated using a CaliperLabChip® EZ Reader mobility shift assay. In the assay, CDK2/Cyclin E1 (Eurofins, 14-475) catalyzed the phosphorylation of a fluorescently tagged peptide 5-FAM-QSPKKG-CONH2 (PerkinEliner, FL Peptide 18) which induced a difference in capillary electrophoresis mobility. The peptide substrate and product were measured, and the conversion ratio was used to determine the inhibition (as % activity and IC50 values) of CDK2/Cyclin E1. Reactions contained 50 mM HEPES pH 7.5, 10 mM MgCl2, 1 mM EDTA, 2 mM DTT, 0.01% Brij35, 0.5 mg/mL BSA, 0.1% DMSO, 2.5 nM CDK2/Cyclin E1, 100 μM ATP, and 1.5 μM fluorescent peptide substrate.
Dose titrations of inhibitors in 100% DMSO were combined with 3.25 nM CDK2/Cyclin E1 and 130 μM of ATP in reaction buffer. The mixtures were incubated for 30 minutes before the addition of fluorescent peptide substrate to initiate the kinase reaction. The final conditions were 2.5 nM CDK2/Cyclin E1, 100 μM ATP, and 1.5 μM fluorescent peptide. The reactions were stopped after 100 minutes with the addition of EDTA (400 mM final EDTA concentration). The stopped reactions were analyzed on a Caliper LabChip® EZ Reader II. The conversion ratios were normalized to yield % activity, plotted against compound concentration, and fit to a four-parameter equation to determine the IC50 for each compound.

CDK2/Cyclin E1 [2] = target: T1, CDK2/Cyclin E1; experiment: ADP-Glo Luminescent Kinase Assay (CDK2/E1-37C); format: biochemical; conditions: 0.18 nM CDK2/Cyclin E1, 100 μM ATP, 1.5 μM Histone H1, 37° C., 60 min pre-incubation; read-out: ADPGLO (CDK2/E1-37C): IC50
How it was run: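 Human CDK2/Cyclin E1 preincubated with inhibitor 60 min at 37 °C, then reacted 90 min at 37 °C with final 0.18 nM enzyme, 100 μM ATP, 1.5 μM Histone H1 in HEPES pH 7.5 buffer. ADP formed read by ADP-Glo luminescence; IC50 from four-parameter fit.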

SMILES | IC50 (CDK2/Cyclin E1 [1]) [nM] | IC50 (CDK2/Cyclin E1 [2]) [nM] | IC50 (Kuramochi cells) [nM]
CNC(=O)C(NC(=O)[C@@H]1CN(C(=O)c2cncs2)CC12CN(CC1CCCO1)C2)[C@@H](C)OCC12CCC(CC1)OC2 (stereo partly drawn) [Example I-59, (8S)—N-((3R)-3-((2-oxabicyclo[2.2.2]octan-4-yl)methoxy)-1-(methylamino)-1-oxobutan-2-yl)-2-((tetrahydrofuran-2-yl)methyl)-6-(thiazole-5-carbonyl)-2,6-diazaspiro[3.4]octane-8-carboxamide] | 100 to 1000 |  | 5000 to 20000
COC(=O)[C@@H](NC(=O)[C@@H]1CN(C(=O)c2cnn(Cc3ccccc3)c2)CC12CN(C(=O)[C@H]1CC1(C)C)C2)[C@@H](C)OCC1CCC2(CCC2)CC1 [Example I-43] | < 10 | < 500 | 500 to 5000
CNC(=O)[C@@H](NC(=O)[C@@H]1CN(C(=O)c2cncs2)CC12CN(CC1CCCO1)C2)[C@@H](C)OCC1(CO)CC=CCC1 (stereo partly drawn) [Example I-49] | 100 to 1000 | > 10000 | > 20000
CCOC(=O)C(F)(F)CNC(=O)[C@@H](NC(=O)[C@@H]1CN(C(=O)c2cnn(Cc3ccccc3)c2)CC12CN(C(=O)[C@H]1CC1(C)C)C2)[C@@H](C)OCC1CCCCC1 [Example I-47, ethyl 3-((2S,3R)-2-((S)-6-(1-benzyl-1H-pyrazole-4-carbonyl)-2-((S)-2,2-dimethylcyclopropane-1-carbonyl)-2,6-diazaspiro[3.4]octane-8-carboxamido)-3-(cyclohexylmethoxy)butanamido)-2,2-difluoropropanoate] | < 10 | < 500 | 5000 to 20000
Cc1nc(C)c(C(=O)N2C[C@@H](C(=O)N[C@H](C(=O)N3CCC(OC(F)(F)F)CC3)[C@@H](C)OCC3(CO)CC=CCC3)C3(C2)CN(C(=O)[C@H]2CC2(C)C)C3)s1 (stereo in doubt) [Example I-51] | 10 to 100 |  | 500 to 5000
C[C@@H](OCC1(CO)CC=CCC1)[C@H](NC(=O)[C@@H]1CN(C(=O)c2cncs2)CC12CN(C(=O)[C@H]1CC1(C)C)C2)C(=O)N1CCC(C)(C)CC1 (stereo partly drawn) [Example I-53] | < 10 |  | < 500
COC1CCN(C(=O)[C@@H](NC(=O)[C@@H]2CN(C(=O)c3sc(C)nc3C)CC23CN(C(=O)[C@H]2CC2(C)C)C3)[C@@H](C)OCC2(CO)CC=CCC2)CC1 (stereo in doubt) [Example I-55] | 10 to 100 |  | > 20000
COC[C@H]1CCCN(C(=O)[C@@H](NC(=O)[C@H]2CN(C(=O)c3cncs3)CC23CN(C(=O)[C@H]2CC2(C)C)C3)[C@@H](C)OCC2CCCCC2)C1 [Example I-116, (R)—N-((2S,3R)-3-(cyclohexylmethoxy)-1-((S)-3-(methoxymethyl)piperidin-1-yl)-1-oxobutan-2-yl)-2-((S)-2,2-dimethylcyclopropanecarbonyl)-6-(thiazole-5-carbonyl)-2,6-diazaspiro[3.4]octane-8-carboxamide] | 100 to 1000 |  | 5000 to 20000
Cc1nc(C)c(C(=O)N2C[C@@H](C(=O)NC(C(=O)N3CCC(C(F)(F)F)CC3)[C@@H](C)OCC3(CO)CC=CCC3)C3(C2)CN(C(=O)[C@H]2CC2(C)C)C3)s1 (stereo partly drawn) [Example I-50, (8S)-2-((S)-2,2-dimethylcyclopropane-1-carbonyl)-6-(2,4-dimethylthiazole-5-carbonyl)-N-((2S,3R)-3-((1-(hydroxymethyl)cyclohex-3-en-1-yl)methoxy)-1-oxo-1-(4-(trifluoromethyl)piperidin-1-yl)butan-2-yl)-2,6-diazaspiro[3.4]octane-8-carboxamide] | < 10 |  | 500 to 5000
C[C@@H](OCC12CCC(CC1)OC2)[C@H](NC(=O)[C@@H]1CN(C(=O)c2cncs2)CC12CN(CC1CCCO1)C2)C(=O)N1CCC(c2nccs2)CC1 (stereo partly drawn) [Example I-44, (8S)—N-((2S,3R)-3-((2-oxabicyclo[2.2.2]octan-4-yl)methoxy)-1-oxo-1-(4-(thiazol-2-yl)piperidin-1-yl)butan-2-yl)-2-((tetrahydrofuran-2-yl)methyl)-6-(thiazole-5-carbonyl)-2,6-diazaspiro[3.4]octane-8-carboxamide] | > 10000 | > 100000 | > 20000
Cc1nc(C)c(C(=O)N2C[C@@H](C(=O)NC([C@@H](C)OCC3(CO)CC=CCC3)C(C)(C)O)C3(C2)CN(C(=O)C(C)(C)C2CC2)C3)s1 (stereo partly drawn) [Example I-56, (8S)-2-(2-cyclopropyl-2-methylpropanoyl)-6-(2,4-dimethylthiazole-5-carbonyl)-N-((4R)-2-hydroxy-4-((1-(hydroxymethyl)cyclohex-3-en-1-yl)methoxy)-2-methylpentan-3-yl)-2,6-diazaspiro[3.4]octane-8-carboxamide] | 1000 to 10000 |  | > 20000
C[C@@H](OCC1CCC2(CCC2)CC1)[C@H](NC(=O)[C@@H]1CN(C(=O)c2cnn(Cc3ccccc3)c2)CC12CN(C(=O)[C@H]1CC1(C)C)C2)C(=O)O [Example I-40, N—((S)-6-(1-benzyl-1H-pyrazole-4-carbonyl)-2-((S)-2,2-dimethylcyclopropane-1-carbonyl)-2,6-diazaspiro[3.4]octane-8-carbonyl)-O-(spiro[3.5]nonan-7-ylmethyl)-L-threonine] | < 10 | < 500 | > 20000
COC1CCN(C(=O)[C@@H](NC(=O)[C@@H]2CN(C(=O)c3cncs3)CC23CN(C(=O)[C@H]2CC2(C)C)C3)[C@@H](C)OCC2(CO)CC=CCC2)CC1 (stereo in doubt) [Example I-54] | < 10 |  | 500 to 5000
C[C@@H](OCC1(CO)CC=CCC1)C(NC(=O)[C@@H]1CN(C(=O)c2cnco2)CC12CN(C(=O)C(C)(C)C1CC1)C2)C(C)(C)O (single isomer, unassigned) [Example I-57] | 100 to 1000 |  | > 20000

Now from value to compound, other results behind:

IC50 (CDK2/Cyclin E1 [1]) [nM] | IC50 (CDK2/Cyclin E1 [2]) [nM] | SMILES | IC50 (Kuramochi cells) [nM]
< 10 | < 500 | COC(=O)C1(CNC(=O)[C@@H](NC(=O)[C@@H]2CN(C(=O)c3cnn(Cc4ccccc4)c3)CC23CN(C(=O)[C@H]2CC2(C)C)C3)[C@@H](C)OCC2CCCCC2)CC1 [Example I-39] | < 500
< 10 | < 500 | C[C@@H](OCC1CCCCC1)[C@H](NC(=O)[C@@H]1CN(C(=O)c2cnn(Cc3ccccc3)c2)CC12CN(C(=O)[C@H]1CC1(C)C)C2)C(=O)N1CCC[C@@H](C(=O)O)C1 [Example I-46] | > 20000
< 10 | < 500 | C[C@@H](OCC1CCCCC1)[C@H](NC(=O)[C@@H]1CN(C(=O)c2cnn(Cc3ccccc3)c2)CC12CN(C(=O)[C@H]1CC1(C)C)C2)C(=O)N1CCC(c2ccc(C(=O)O)cc2)CC1 [Example I-45] | 500 to 5000
< 10 | < 500 | C[C@@H](OCC1CCCCC1)[C@H](NC(=O)[C@@H]1CN(C(=O)c2cnn(Cc3ccccc3)c2)CC12CN(C(=O)[C@H]1CC1(C)C)C2)C(=O)NCCC(=O)O [Example I-41, 3-((2S,3R)-2-((S)-6-(1-benzyl-1H-pyrazole-4-carbonyl)-2-((S)-2,2-dimethylcyclopropane-1-carbonyl)-2,6-diazaspiro[3.4]octane-8-carboxamido)-3-(cyclohexylmethoxy)butanamido)propanoic acid] | > 20000
< 10 | < 500 | COC(=O)[C@@H]1CCCCN1C(=O)[C@@H](NC(=O)[C@@H]1CN(C(=O)c2cnn(Cc3ccccc3)c2)CC12CN(C(=O)[C@H]1CC1(C)C)C2)[C@@H](C)OCC1CCCCC1 [Example I-38] | < 500
< 10 | < 500 | COC(=O)CCNC(=O)[C@@H](NC(=O)[C@@H]1CN(C(=O)c2cnn(Cc3ccccc3)c2)CC12CN(C(=O)[C@H]1CC1(C)C)C2)[C@@H](C)OCC1CCCCC1 [Example I-42] | < 500
